{"source": "patent US20080200436A1", "about": "(priority 2004, published 2008)", "key": {"[1]": {"test_system": "VEGF RTK", "details": "cited from earlier work"}, "[2]": {"test_system": "LNCaP tumour xenografts", "test": "LNCaP Human Prostate Cancer Xenograft Model", "type": "in vivo, Swiss nude mice", "details": "for tumour volume versus orchiectomy and control groups: P<0.001 versus each group", "description": "Six to eight-week-old Swiss nude mice were given one injection in the anterior flank with 5×10^6 tumour cells suspended in 0.1 ml of serum-free medium with the addition of 100 μl of Matrigel. Once tumours were established, mice were randomized into control and treatment groups.\nMice were examined twice a week, and tumours were measured with calipers across the greatest two diameters. At the time of euthanasia, tumours were removed by dissection away from adjacent organs and structures and weighed on an analytical balance. For histologic analysis, tissue samples were fixed in 10% neutral buffered formalin and processed through graded ethanols and xylenes for paraffin embedding and staining using standard methods. For calculation of percent necrosis, 5 random fields per tumour were examined at low power (10×) from tumours harvested at 40 days. The necrotic area(s) in each field was/were circumscribed electronically using the tools available in the ImagePro computerized image analysis package (Media Cybernetics) to create an area. A human operator carried out this identification and circling of the necrotic area for all analyzed issues. Using the total area of the section as the denominator, the percentage of necrosis was evaluated for each field. To obtain an average for a whole experimental tumour group, the percent necrosis for each field was averaged across the total number of tumours in the group.\nRepeated measure models were used for the analysis of the in vivo tumour volumes. Several covariance structures, including AR- 1 and random coefficient models, were used and all yielded similar conclusions. The analyses reported herein are based on a random coefficient model with robust estimates of the covariance matrix. Specific comparisons between treatment groups were made using F-test based on contrasts. Statistical analyses were carried out in SAS PROC MIXED; the plots were prepared in GAUSS 5.0. Error bars represent one standard error from the mean. Time from treatment initiation to the time that tumour volumes exceeded a cut-off value (a tumour volume of >300 mm^3) were estimated with Kaplan-Meier curves and compared across treatment groups with the log-rank test. Tumour volume cut-offs were used to avoid using a survival endpoint, which would have involved significant animal distress and to employ a threshold that was appropriate for comparing the tumour growth data across all groups."}}}
{"smiles": "COc1cc2c(Nc3ccc(Br)cc3F)ncnc2cc1OCC1CCN(C)CC1", "note": "[ZD6474, 4-(4-bromo-2-fluoroanilino)-6-methoxy-7-(1-methylpiperidin-4-ylmethoxy)quinazoline]", "values": [{"measurement": "inhibition of VEGF RTK", "setting": "[1]", "value": "potent inhibitor"}, {"measurement": "delay before tumour growth resumed after compound withdrawal", "setting": "[2]; ZD6474 alone 50 mg/kg/day for 40 days, then withdrawn, normal mice", "value": "approximately 15 days"}, {"measurement": "tumour volume versus orchiectomy and control groups", "setting": "[2]; ZD6474 alone 50 mg/kg/day, after 38 days of treatment", "value": "significant differences in tumour volume"}, {"measurement": "tumour volume versus orchiectomy group", "setting": "[2]; ZD6474 alone 50 mg/kg/day, days 13 to 38 post-treatment, P<0.05", "value": "Statistically significant differences"}, {"measurement": "percentage of necrosis", "setting": "[2]; ZD6474 alone, 50 mg/kg/day once daily p.o., normal mice, tumours harvested at day 40, 5 tumours, vehicle control 31±7%", "value": "48±5", "unit": "%"}, {"measurement": "percentage of necrosis", "setting": "[2]; combination of orchiectomy and ZD6474 50 mg/kg/day, tumours harvested at day 40, versus 51±5% in monotherapy, P=0.01", "value": "73±6", "unit": "%"}, {"measurement": "tumour volume versus orchiectomy and control groups", "setting": "[2]; combination therapy group (ZD6474 50 mg/kg/day plus orchiectomy), after 38 days", "value": "significant differences were observed"}, {"measurement": "rate of tumour growth after ZD6474 withdrawal versus untreated tumours", "setting": "[2]; previously ZD6474 treated tumours, delay of approximately 15 days taken into account", "value": "no significant difference"}]}
